In paper PMC3256138, “Disease Progression in MRL/lpr Lupus-Prone Mice Is Reduced by NCS 613, a Specific Cyclic Nucleotide Phosphodiesterase Type 4 (PDE4) Inhibitor” (PLoS ONE, 2012):
Read-outs that look alike come from different tables or passages of the source.

What was measured:
PDE4 [1] = experiment: IC50 on purified PDE4 isozyme; type: biochemical, bovine; settings: for IC50: 1 µM cAMP substrate, mean±s.e.m. of three experiments
Experimental: (§1) PDE1, PDE3, PDE4 and PDE5 were isolated by anion exchange chromatography from bovine aortic smooth muscle cytosolic fraction. PDE2 was isolated from human platelets following the method described in [44]. Purified PDEs were stored as small aliquots at −80°C until use. PDE activity was determined at a substrate concentration of 1 µM cAMP or cGMP in the presence of 10,000 cpm [^3H]-cAMP or -cGMP as tracers. PDE1 activity was assessed at 1 µM cGMP in calmodulin-activated state (18 nM calmodulin with 10 µM CaCl2). PDE2 activity was assessed at 1 µM cAMP in activated state (+5 µM cGMP), and PDE3 and PDE4 activities were assessed at 1 µM cAMP in the presence of 1 mM EGTA. […] PDE5 activity was measured at 1 µM cGMP in the presence of 1 mM of EGTA. […] This concentration of DMSO had no effect when tested in control preparation.

PBLs from MRL/lpr mice = experiment: Ex vivo LPS-induced TNFα secretion by PBLs from treated MRL/lpr mice; type: in vivo, mouse; settings: PBLs of 14 week-old mice treated i.v. (100 µg pentoxifylline or denbufylline, 30 µg NCS 613); 5 µg/mL LPS, 24 h
Experimental: Blood samples were pooled from groups of seven 14 week-old treated mice. PBLs were purified by density separation (Lympholyte-M, d = 1.0875; Cedarlane, Hornby, Canada), washed three times, and resuspended at 5×10^6 cells/ml in L-alanyl-L-glutamine-enriched RPMI 1640 medium (Cambrex, Verviers, Belgium) containing 10% (v/v) fetal calf serum (Dutscher, Brumath, France), HEPES, gentamycin and β-mercaptoethanol. They were cultured in duplicate using 5×10^5 cells/well in the presence of 5 µg/mL LPS from E. coli. Culture supernatants were collected after 24 h and stored frozen at −20°C. TNFα levels were determined using a double-sandwich ELISA (PharMingen, San Diego, CA; detection limit 30 pg/mL) according to the manufacturer's instructions.

MRL/lpr lupus-prone mice = experiment: Treatment of MRL/lpr lupus-prone mice with PDE inhibitors: proteinuria, survival, anti-DNA antibodies; settings: for Median survival time / Mice with positive proteinuria: 100 µg i.v. at 5, 7, 9 and 13 weeks; for Mice with positive proteinuria: at 18 weeks of age; for Age at which treated mice started dying / Proteinuria level compared to the control group: i.v. at 5, 7, 9 and 13 weeks; for Age at which treated mice started dying: control 17 weeks; for Proteinuria level compared to the control group: 100 µg pentoxifylline or 30 µg NCS 613
Experimental: All mice were monitored regularly for different clinical and biological parameters over 26 weeks. Measurements of outcome included the evaluation of survival and proteinuria measured on a fresh urine sample. Protein levels were determined using colored strips (Albutix; Bayer Diagnostics, Basingstoke, UK) and scored at values corresponding to 30, 100, 300 and >2000 mg/dL.

PDE1 = experiment: IC50 on purified PDE1 isozyme (calmodulin-activated); type: biochemical, bovine; settings: 1 µM cGMP substrate, CaM modulator; mean±s.e.m. of three experiments
Experimental: as §1

human recombinant PDE4A = target: T1, human recombinant PDE4A (Homo sapiens, UniProt P27815); experiment: IC50 on human recombinant PDE4A; type: biochemical
T1 construct: gift of Ted J. Torphy (SmithKline Beecham Pharmaceuticals, King of Prussia, PA, USA)

PDE3 = target: T2, PDE3 (Bos taurus, UniProt A0A3Q1M1E8); experiment: IC50 on purified PDE3 isozyme; type: biochemical, bovine; settings: 1 µM cAMP substrate; mean±s.e.m. of three experiments
T2 sequence (A0A3Q1M1E8 1-1126): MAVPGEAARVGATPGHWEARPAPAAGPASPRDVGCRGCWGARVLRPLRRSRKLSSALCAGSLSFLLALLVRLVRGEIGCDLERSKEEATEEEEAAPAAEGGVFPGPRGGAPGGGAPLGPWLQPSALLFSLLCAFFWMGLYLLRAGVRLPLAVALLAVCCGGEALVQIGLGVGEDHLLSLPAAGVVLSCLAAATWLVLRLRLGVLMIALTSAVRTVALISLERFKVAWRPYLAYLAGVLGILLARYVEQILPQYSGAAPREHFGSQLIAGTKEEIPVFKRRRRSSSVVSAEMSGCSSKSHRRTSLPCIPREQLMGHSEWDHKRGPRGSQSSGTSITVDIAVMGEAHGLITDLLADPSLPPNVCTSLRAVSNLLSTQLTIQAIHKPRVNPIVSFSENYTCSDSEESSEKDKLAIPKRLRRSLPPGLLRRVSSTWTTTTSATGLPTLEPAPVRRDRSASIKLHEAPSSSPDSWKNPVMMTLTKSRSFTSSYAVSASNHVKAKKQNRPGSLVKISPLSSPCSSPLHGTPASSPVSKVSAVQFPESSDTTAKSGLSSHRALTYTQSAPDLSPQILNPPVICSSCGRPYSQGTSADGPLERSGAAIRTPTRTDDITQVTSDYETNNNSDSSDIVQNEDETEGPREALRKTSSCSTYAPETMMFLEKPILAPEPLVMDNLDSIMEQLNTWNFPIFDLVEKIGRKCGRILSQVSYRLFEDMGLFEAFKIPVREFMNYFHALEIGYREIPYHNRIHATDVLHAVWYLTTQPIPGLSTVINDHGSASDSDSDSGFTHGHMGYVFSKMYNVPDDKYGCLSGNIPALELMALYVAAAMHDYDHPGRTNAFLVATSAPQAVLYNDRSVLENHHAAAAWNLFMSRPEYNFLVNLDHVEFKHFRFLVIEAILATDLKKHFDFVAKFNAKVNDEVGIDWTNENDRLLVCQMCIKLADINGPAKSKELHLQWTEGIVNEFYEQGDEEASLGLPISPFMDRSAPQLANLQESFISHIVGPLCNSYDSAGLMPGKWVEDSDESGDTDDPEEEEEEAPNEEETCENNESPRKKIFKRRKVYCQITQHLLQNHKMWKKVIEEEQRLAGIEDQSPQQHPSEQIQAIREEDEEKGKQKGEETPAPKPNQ
Experimental: PDE2 was isolated from human platelets following the method described in [44]. Purified PDEs were stored as small aliquots at −80°C until use. PDE activity was determined at a substrate concentration of 1 µM cAMP or cGMP in the presence of 10,000 cpm [^3H]-cAMP or -cGMP as tracers. PDE1 activity was assessed at 1 µM cGMP in calmodulin-activated state (18 nM calmodulin with 10 µM CaCl2). […] This concentration of DMSO had no effect when tested in control preparation.

[2] = Solubility in injection vehicle PBS-10% ethanol; type: physicochemical; settings: at 100 µg/100 µL
PDE4 [3] = system: PDE4; set-up: method as in PMID 9191951; settings: text value with reference; cited from earlier work
human recombinant PDE4D = target: T3, human recombinant PDE4D (Homo sapiens, UniProt Q08499); experiment: IC50 on human recombinant PDE4D; type: biochemical
T3 construct: gift of Ted J. Torphy (SmithKline Beecham Pharmaceuticals, King of Prussia, PA, USA)

human recombinant PDE4C = target: T4, human recombinant PDE4C (Homo sapiens, UniProt Q08493); experiment: IC50 on human recombinant PDE4C; type: biochemical; settings: 1 µM cAMP; with confidence interval
T4 construct: gift of Ted J. Torphy (SmithKline Beecham Pharmaceuticals, King of Prussia, PA, USA)

acid gastric secretion = system: acid gastric secretion; set-up: method as in PMID 10640302; settings: cited from earlier work
PDE5 = target: T5, PDE5 (Bos taurus, UniProt Q28156); experiment: IC50 on purified PDE5 isozyme; type: biochemical, bovine; settings: 1 µM cGMP substrate; mean±s.e.m. of three experiments
T5 construct: isolated by anion exchange chromatography from bovine aortic smooth muscle cytosolic fraction; from tissue; host or cells: bovine aortic smooth muscle cytosolic fraction
Experimental: as §1

human recombinant PDE4B = target: T6, human recombinant PDE4B (Homo sapiens, UniProt Q07343); experiment: IC50 on human recombinant PDE4B; type: biochemical
T6 construct: gift of Ted J. Torphy (SmithKline Beecham Pharmaceuticals, King of Prussia, PA, USA)

PBLs from SLE patients = experiment: TNFα secretion by PBLs from SLE patients; type: cell-based, human; settings: for Effect on LPS-induced TNFα production: 5 µg/mL LPS, 24 h
Experimental: PBLs were isolated by centrifugation on Ficoll-Histopaque (Sigma-Aldrich) and cultured as described above using 5×10^5 cells/well. […] Culture supernatants were collected 24 h later and stored frozen at −20°C before TNFα level determination, as described above.

PDE2 = target: T7, PDE2 (Homo sapiens, UniProt O00408); experiment: IC50 on purified PDE2 isozyme (cGMP-activated); type: biochemical; settings: 1 µM cAMP substrate, cGMP modulator; mean±s.e.m. of three experiments
T7 construct: PDE2 was isolated from human platelets; from tissue; host or cells: human platelets
Experimental: as §1

human PBLs = system: human PBLs; set-up: method as in PMID 10640302; settings: read-out: IC50 LPS-induced TNFα secretion by human PBLs; cited from earlier work
[4] = target: High Affinity Rolipram Binding Site (HARBS); experiment: 3H-rolipram binding assay on rat brain membranes; settings: rat brain membrane, 4 nM 3H-rolipram; read-out: Ki toward 3H-rolipram binding (HARBS)
Experimental: The assay was done in 50 mM N-Tris hydroxymethyl methyl-2-aminoethane sulfonic acid/NaOH buffer, pH 7.6, containing 10 mM MgCl2, 0.1 M NaCl and 100 µM 5′AMP. […] Binding assays were started by the addition of 100 µL of rat brain membrane (0.9 mg protein/mL) to the reaction mixture and conducted at 23°C for 1 h under agitation and stopped by the addition of 3 mL of ice-cold reaction buffer and rapid vacuum filtration through Whatman GF/B filters that have been soaked in 0.3% (v/v) polyethylenimine. Filters were washed twice (3 ml of ice-cold reaction buffer without 5′AMP), dried and counted by liquid scintillation. […] Ki and confidence interval values of binding studies were determined by using one site fit Ki GraphPad Prism5 analysis.

[5] = 1 µM cAMP, with confidence interval

T7 sequence (O00408 whole entry): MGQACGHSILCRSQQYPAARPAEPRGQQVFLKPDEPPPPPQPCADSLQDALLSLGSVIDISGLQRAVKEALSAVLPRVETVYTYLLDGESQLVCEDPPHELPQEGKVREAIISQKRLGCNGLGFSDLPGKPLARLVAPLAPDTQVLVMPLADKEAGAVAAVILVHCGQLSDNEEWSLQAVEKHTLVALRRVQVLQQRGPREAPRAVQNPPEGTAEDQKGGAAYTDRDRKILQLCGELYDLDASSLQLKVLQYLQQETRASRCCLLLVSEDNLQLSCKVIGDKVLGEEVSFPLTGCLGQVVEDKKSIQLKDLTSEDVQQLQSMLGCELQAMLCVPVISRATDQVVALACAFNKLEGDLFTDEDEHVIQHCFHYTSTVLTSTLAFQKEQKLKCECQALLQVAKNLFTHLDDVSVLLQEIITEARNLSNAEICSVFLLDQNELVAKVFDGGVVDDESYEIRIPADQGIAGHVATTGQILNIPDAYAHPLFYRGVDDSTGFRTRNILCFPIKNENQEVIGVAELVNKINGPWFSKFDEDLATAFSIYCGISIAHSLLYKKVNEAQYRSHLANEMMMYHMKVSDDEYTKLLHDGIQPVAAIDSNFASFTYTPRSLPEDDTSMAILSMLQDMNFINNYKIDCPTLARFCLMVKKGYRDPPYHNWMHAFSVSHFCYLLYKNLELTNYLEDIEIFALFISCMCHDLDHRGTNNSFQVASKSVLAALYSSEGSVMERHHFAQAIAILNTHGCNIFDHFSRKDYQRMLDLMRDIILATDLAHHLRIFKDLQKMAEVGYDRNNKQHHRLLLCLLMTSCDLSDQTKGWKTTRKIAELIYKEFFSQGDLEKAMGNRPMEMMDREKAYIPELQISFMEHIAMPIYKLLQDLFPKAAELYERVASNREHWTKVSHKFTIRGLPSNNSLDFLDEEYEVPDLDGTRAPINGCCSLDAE
T3 sequence (Q08499 whole entry): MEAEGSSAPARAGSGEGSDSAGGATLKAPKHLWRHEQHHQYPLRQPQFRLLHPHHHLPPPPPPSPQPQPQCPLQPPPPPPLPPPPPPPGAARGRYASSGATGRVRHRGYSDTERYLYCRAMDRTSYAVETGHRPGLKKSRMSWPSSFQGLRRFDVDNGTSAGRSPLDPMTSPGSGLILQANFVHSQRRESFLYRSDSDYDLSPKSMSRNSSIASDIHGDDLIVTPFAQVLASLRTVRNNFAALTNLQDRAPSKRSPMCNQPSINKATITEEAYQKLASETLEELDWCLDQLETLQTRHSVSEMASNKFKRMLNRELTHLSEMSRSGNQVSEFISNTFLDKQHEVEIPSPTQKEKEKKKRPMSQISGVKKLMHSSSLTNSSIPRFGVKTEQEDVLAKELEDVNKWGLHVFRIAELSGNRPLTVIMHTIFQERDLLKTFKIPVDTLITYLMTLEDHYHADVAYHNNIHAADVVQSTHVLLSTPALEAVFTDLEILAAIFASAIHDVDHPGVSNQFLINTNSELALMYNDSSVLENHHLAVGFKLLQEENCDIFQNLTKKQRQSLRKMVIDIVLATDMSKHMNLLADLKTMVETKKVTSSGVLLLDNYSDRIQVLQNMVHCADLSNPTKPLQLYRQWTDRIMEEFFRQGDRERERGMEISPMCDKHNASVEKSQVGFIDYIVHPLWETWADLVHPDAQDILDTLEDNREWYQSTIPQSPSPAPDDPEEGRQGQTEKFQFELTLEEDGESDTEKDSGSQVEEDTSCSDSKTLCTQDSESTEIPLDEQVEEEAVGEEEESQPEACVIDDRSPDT
T1 sequence (P27815 whole entry): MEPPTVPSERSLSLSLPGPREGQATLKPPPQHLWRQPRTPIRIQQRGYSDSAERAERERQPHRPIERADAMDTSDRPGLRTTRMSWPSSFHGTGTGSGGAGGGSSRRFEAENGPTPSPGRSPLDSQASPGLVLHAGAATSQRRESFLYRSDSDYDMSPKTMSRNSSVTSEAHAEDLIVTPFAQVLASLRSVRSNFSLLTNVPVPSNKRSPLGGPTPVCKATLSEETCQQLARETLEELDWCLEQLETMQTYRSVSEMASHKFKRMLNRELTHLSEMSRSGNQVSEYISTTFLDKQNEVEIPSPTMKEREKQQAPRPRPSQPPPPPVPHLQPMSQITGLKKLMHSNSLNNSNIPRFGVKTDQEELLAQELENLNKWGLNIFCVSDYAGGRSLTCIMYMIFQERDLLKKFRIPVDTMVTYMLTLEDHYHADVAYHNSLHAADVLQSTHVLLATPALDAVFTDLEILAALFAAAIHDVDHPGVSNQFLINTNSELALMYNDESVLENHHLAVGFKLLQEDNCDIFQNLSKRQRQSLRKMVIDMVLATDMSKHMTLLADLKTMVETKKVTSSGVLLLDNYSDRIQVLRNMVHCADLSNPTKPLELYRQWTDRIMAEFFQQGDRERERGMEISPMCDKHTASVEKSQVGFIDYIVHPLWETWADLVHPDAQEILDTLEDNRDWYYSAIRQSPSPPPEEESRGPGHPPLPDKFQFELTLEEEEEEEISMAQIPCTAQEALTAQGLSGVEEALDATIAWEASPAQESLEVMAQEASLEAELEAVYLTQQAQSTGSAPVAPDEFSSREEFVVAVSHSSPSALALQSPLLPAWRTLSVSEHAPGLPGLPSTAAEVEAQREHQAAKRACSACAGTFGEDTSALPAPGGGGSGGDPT
T6 sequence (Q07343 whole entry): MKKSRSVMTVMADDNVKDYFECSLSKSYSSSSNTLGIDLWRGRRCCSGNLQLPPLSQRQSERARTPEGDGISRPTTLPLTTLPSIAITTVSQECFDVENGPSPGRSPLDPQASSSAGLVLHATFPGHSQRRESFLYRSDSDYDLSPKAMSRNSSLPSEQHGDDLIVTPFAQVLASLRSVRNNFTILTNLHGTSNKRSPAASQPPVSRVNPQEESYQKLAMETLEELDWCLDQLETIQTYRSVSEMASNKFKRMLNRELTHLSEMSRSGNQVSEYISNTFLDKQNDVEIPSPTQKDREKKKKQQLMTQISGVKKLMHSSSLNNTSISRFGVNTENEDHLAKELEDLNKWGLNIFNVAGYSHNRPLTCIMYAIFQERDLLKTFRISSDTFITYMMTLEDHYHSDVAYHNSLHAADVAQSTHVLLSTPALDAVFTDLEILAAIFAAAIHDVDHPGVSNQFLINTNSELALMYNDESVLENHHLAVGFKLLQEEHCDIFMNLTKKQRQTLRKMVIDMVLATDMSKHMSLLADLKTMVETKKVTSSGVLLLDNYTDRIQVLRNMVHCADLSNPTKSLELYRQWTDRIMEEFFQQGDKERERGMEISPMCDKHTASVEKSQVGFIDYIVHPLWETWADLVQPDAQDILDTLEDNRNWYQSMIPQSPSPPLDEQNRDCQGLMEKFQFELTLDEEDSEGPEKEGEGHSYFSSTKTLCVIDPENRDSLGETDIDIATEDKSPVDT
T4 sequence (Q08493 whole entry): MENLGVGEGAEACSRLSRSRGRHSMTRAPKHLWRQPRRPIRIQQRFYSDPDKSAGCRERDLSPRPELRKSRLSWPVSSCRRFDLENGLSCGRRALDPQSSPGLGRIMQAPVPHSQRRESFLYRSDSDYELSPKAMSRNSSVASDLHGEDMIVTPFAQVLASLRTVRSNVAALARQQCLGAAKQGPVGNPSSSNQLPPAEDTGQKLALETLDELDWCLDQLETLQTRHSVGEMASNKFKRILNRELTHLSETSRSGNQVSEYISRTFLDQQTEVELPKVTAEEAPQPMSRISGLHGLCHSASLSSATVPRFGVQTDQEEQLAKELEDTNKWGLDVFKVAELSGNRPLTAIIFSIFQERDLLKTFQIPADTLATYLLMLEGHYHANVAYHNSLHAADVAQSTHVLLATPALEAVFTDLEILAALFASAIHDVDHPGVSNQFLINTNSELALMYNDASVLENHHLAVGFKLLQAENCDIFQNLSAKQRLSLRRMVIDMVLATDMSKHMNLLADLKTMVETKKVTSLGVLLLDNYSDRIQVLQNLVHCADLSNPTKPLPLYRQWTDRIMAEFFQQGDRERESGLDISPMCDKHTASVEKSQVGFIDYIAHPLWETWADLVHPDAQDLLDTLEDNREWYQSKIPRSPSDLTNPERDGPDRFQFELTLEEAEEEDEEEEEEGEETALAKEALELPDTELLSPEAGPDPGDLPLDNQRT

For `CCCCn1c(=O)c2c(ncn2CC(C)=O)n(CCCC)c1=O` [Denbufylline, denbufylline], the IC50 (PDE4 [1]) was 760 ± 50 nM, the “Inhibition rate of LPS-induced TNFα secretion” value (“Inhibition rate” below) (PBLs from MRL/lpr mice) was 70% and the Median survival time (MRL/lpr lupus-prone mice) was 26.5 weeks. For the same compound, the “Mice with positive proteinuria” value (MRL/lpr lupus-prone mice) was “around 50%”, the “Age at which treated mice started dying” value (MRL/lpr lupus-prone mice) was 15 weeks and the IC50 (PDE1) was 133 ± 11 µM.

For `CNc1nc(C(F)(F)F)nc2c1ncn2Cc1ccccc1F` [NCS 613], the “PDE4 selectivity relatively to PDE1” value (PDE4 [1]) was 930 fold, the “PDE4 selectivity relatively to PDE5” value (PDE4 [1]) was 112 fold and the IC50 (PDE4 [1]) was 42 ± 3 nM. The PDE5/PDE4 ratio (PDE4 [1]; ratio of IC50 values PDE5/PDE4) was 111.9, the “Inhibition rate” value (PBLs from MRL/lpr mice) was 54% and the IC50 (human recombinant PDE4A) was 44 nM. For the same compound, the IC50 (human recombinant PDE4A; [5]) was 43.6 nM, the “Age of the first mouse that developed proteinuria” value (MRL/lpr lupus-prone mice; 30 µg i.v. at 5, 7, 9 and 13 weeks) was 18 week-old and the “Effect on survival of MRL/lpr mice” value (MRL/lpr lupus-prone mice; 30 µg i.v. at 5, 7, 9 and 13 weeks, P = 0.005) was “significantly increased”. The Mice still alive (MRL/lpr lupus-prone mice; at 31 weeks, 30 µg i.v. at 5, 7, 9 and 13 weeks) was 50%, the “Proteinuria level compared to the control group” value (MRL/lpr lupus-prone mice) was “significantly lower” and the “Age at which treated mice started dying” value (MRL/lpr lupus-prone mice) was 26 weeks. For the same compound, the IC50 (PDE3) was greater than 300 µM, the “Solubility in PBS-10% ethanol” value [2] was “not soluble” and the IC50 (PDE4 [3]) was 42 nM. The IC50 (human recombinant PDE4D) was 14 nM, the IC50 (human recombinant PDE4D; [5]) was 14.4 nM and the IC50 (human recombinant PDE4C) was 1.4 nM. The “Induction of acid gastric secretion” value (acid gastric secretion) was “does not induce”, the IC50 (PDE5) was 4.7 ± 0.1 µM and the IC50 (human recombinant PDE4B) was 48 nM. For the same compound, the IC50 (human recombinant PDE4B; [5]) was 48.1 nM, the “Decrease of basal TNFα secretion level” value (PBLs from SLE patients; 10 µM, no LPS, cells from patient 2) was 67% and the “Effect on LPS-induced TNFα production” value (PBLs from SLE patients; patient SLE1, 0.1 µM) was “No effect”. For the same compound, the “Effect on LPS-induced TNFα production” value (PBLs from SLE patients; patient SLE1, 1 µM) was “significantly suppressed”, the “Effect on LPS-induced TNFα production” value (PBLs from SLE patients; patient SLE1, 10 µM) was “significantly suppressed” and the IC50 (PDE2) was 24 ± 3 µM. For the same compound, the IC50 (PDE1) was 39 ± 2 µM, the IC50 (human PBLs) was 18 nM and the Ki [4] was 148 nM.

For `CC(=O)CCCCn1c(=O)c2c(ncn2C)n(C)c1=O` [Pentoxifylline, pentoxifylline], the IC50 (PDE4 [1]) was 135000 ± 11000 nM, the “Inhibition rate” value (PBLs from MRL/lpr mice) was 51% and the Median survival time (MRL/lpr lupus-prone mice) was 27.5 weeks. The “Mice with positive proteinuria” value (MRL/lpr lupus-prone mice) was “around 50%”, the “Proteinuria level compared to the control group” value (MRL/lpr lupus-prone mice) was “significantly lower” and the “Age at which treated mice started dying” value (MRL/lpr lupus-prone mice) was 22 weeks. The IC50 (PDE5) was 74 ± 6 µM, the IC50 (PDE2) was 119 ± 10 µM and the IC50 (PDE1) was 236 ± 20 µM.
